Test results taken from PubChem BioAssay AID1963869 (Molecular Pharmacology Branch, DTP, NCI, 2024).

Test system: KRAS patient-derived spheroids with HUVEC/MSC, viability
Test: Anticancer human tumor 323965-272-R-J2-PDC patient-derived pancreatic carcinoma cell line growth inhibition [KRAS2]
Details: for viability, T/C: stronger effect = lower value
In short: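 KRAS-mutant tumor cells were grown as spheroids with HUVEC endothelial cells and human MSCs as stroma. Targeted agents were tested alone and with KRAS pathway inhibitors. Doses started at or near clinical Cmax, or 10 microM, descending half-log.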
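Also: spheroids exposed to agents for 7 days.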
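For viability, T/C in this document: 100% = DMSO vehicle control viability.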

CC(=O)Nc1cccc(-n2c(=O)n(C3CC3)c(=O)c3c(Nc4ccc(I)cc4F)n(C)c(=O)c(C)c32)c1 + COc1cc2nc(C)nc(NC(C)c3cc(N)cc(C(F)(F)F)c3)c2cc1OC1CCOC1 showed an IC50 (curve of first compound, second compound 0.1 µM) of 1.6 nM, an IC50 (curve of first compound, second compound 0.316 µM) of 0.949 nM and an IC50 (curve of first compound, second compound 1 µM) of 0.713 nM. The IC50 (curve of first compound, second compound 3.16 µM) was 0.703 nM, the IC50 (curve of first compound, second compound 10 µM) was 1.09 nM and the viability, T/C (second compound 0.1 µM, first compound 0.0001 µM) was 84.1%. It also gave a viability, T/C (second compound 0.1 µM, first compound 0.000316 µM) of 67.3%, a viability, T/C (second compound 0.1 µM, first compound 0.001 µM) of 54.5% and a viability, T/C (second compound 0.1 µM, first compound 0.00316 µM) of 43.7%. For the same compound, the viability, T/C (second compound 0.1 µM, first compound 0.01 µM) was 32.6%, the viability, T/C (second compound 0.1 µM, first compound 0.0316 µM) was 23.7% and the viability, T/C (second compound 0.316 µM, first compound 0.0001 µM) was 67.8%. For the same compound, the viability, T/C (second compound 0.316 µM, first compound 0.000316 µM) was 59.6%, the viability, T/C (second compound 0.316 µM, first compound 0.001 µM) was 48.9% and the viability, T/C (second compound 0.316 µM, first compound 0.00316 µM) was 39.6%. It also gave a viability, T/C (second compound 0.316 µM, first compound 0.01 µM) of 31.9%, a viability, T/C (second compound 0.316 µM, first compound 0.0316 µM) of 22% and a viability, T/C (second compound 1 µM, first compound 0.0001 µM) of 73.5%. The viability, T/C (second compound 1 µM, first compound 0.000316 µM) was 60.4%, the viability, T/C (second compound 1 µM, first compound 0.001 µM) was 43.5% and the viability, T/C (second compound 1 µM, first compound 0.00316 µM) was 37.4%. The viability, T/C (second compound 1 µM, first compound 0.01 µM) was 28.5%, the viability, T/C (second compound 1 µM, first compound 0.0316 µM) was 20.8% and the viability, T/C (second compound 3.16 µM, first compound 0.0001 µM) was 73%. The viability, T/C (second compound 3.16 µM, first compound 0.000316 µM) was 57.9%, the viability, T/C (second compound 3.16 µM, first compound 0.001 µM) was 44.6% and the viability, T/C (second compound 3.16 µM, first compound 0.00316 µM) was 36.3%. The viability, T/C (second compound 3.16 µM, first compound 0.01 µM) was 28.7%, the viability, T/C (second compound 3.16 µM, first compound 0.0316 µM) was 18.4% and the viability, T/C (second compound 10 µM, first compound 0.0001 µM) was 80.7%. For the same compound, the viability, T/C (second compound 10 µM, first compound 0.000316 µM) was 68.2%, the viability, T/C (second compound 10 µM, first compound 0.001 µM) was 49.2% and the viability, T/C (second compound 10 µM, first compound 0.00316 µM) was 36.3%. It also gave a viability, T/C (second compound 10 µM, first compound 0.01 µM) of 26.1% and a viability, T/C (second compound 10 µM, first compound 0.0316 µM) of 12.7%.
With CC(C)NCC(C(=O)N1CCN(c2ncnc3c2C(C)CC3O)CC1)c1ccc(Cl)cc1 (configuration not stated) the viability, T/C (compound 0.0316 µM) was 97.7% [middle of 5 runs], the viability, T/C (compound 0.1 µM) was 94% [middle of 5 runs] and the viability, T/C (compound 0.316 µM) was 84.9% [middle of 5 runs]. For the same compound, the viability, T/C (compound 1 µM) was 64.6% [middle of 5 runs], the viability, T/C (compound 3.16 µM) was 50.4% [middle of 5 runs] and the viability, T/C (compound 10 µM) was 41.8% [middle of 5 runs]. The IC50 (curve of compound) was 2.93 µM [middle of 5 runs].
